Activity calls are given as the source filed them.
Columns and labels:
[1] = biological target: Peroxisome proliferator-activated receptor gamma/Nuclear receptor coactivator 2 (Homo sapiens, UniProt P37231); format: functional;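 further: agonist potency for raising coactivator recruitment to the receptor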
[2] = biological target: Peroxisome proliferator-activated receptor gamma/Nuclear receptor coactivator 1 (Homo sapiens, UniProt P37231); format: functional;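 further: agonist potency as compounds enhance coactivator SRC-1 recruitment to PPARgamma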
[3] = biological target: Peroxisome proliferator-activated receptor gamma/Nuclear receptor coactivator 3 (Homo sapiens, UniProt P37231); format: functional;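 further: agonist potency for raising coactivator recruitment to the receptor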
[4] = biological target: Eukaryotic translation initiation factor 4E (Mus musculus, UniProt P63073); test: blockers of eIF4G binding by eIF4E – biochemical, TR-FRET, dose response (AID 855); format: functional;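 further: potency for disrupting eIF4E binding to eIF4GI seen as loss of FRET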
[5] = biological target: T1, Corticotropin-releasing factor receptor 2/Corticotropin-releasing factor-binding protein (Homo sapiens, UniProt P24387+Q13324); test: Dose Response confirmation of uHTS hits for small molecule antagonists of the CRF-binding protein and CRF-R2 receptor complex.; format: functional; details: read-out: IC50_Mean
T1 sequence (Q13324 whole entry): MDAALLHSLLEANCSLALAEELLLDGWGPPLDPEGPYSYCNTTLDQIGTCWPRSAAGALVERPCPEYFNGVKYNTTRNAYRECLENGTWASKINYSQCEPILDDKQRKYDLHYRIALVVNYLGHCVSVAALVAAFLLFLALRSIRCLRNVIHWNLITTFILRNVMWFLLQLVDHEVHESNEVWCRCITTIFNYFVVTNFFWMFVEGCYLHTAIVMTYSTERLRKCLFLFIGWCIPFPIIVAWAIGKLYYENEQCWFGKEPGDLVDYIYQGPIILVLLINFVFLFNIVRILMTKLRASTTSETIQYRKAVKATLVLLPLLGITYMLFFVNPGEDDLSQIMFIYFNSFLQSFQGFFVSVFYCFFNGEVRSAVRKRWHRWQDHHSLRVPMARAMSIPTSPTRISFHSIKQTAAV
T1 sequence (P24387 whole entry): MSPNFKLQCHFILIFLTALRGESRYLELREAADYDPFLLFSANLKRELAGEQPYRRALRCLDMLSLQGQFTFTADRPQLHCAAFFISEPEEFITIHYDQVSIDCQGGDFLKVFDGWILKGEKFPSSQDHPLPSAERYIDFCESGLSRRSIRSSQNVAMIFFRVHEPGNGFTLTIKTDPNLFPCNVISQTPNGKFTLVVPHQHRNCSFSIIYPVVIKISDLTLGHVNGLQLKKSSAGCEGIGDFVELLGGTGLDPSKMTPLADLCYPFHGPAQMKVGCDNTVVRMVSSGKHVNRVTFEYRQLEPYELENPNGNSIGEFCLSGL

[6] = biological target: T1, Corticotropin-releasing factor receptor 2/Corticotropin-releasing factor-binding protein; test: activators of CRF receptor 2 with binding protein – uHTS hits, confirmation (AID 602473); format: functional; details: read-out: EC50_Mean
[7] = blockers of CRF-binding protein–CRF-R2 complex – cell-based, uHTS hits, 384-well, dose response (AID 651639); format: functional, Homo sapiens; details: read-out: IC50_Mean
[8] = biological target: T2, Coagulation factor XII (Homo sapiens, UniProt P00748); format: functional;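 further: activated factor XIIa alpha cleaving a fluorogenic AMC peptide substrate; inhibitor potency from loss of enzyme activity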
T2 sequence (P00748 whole entry): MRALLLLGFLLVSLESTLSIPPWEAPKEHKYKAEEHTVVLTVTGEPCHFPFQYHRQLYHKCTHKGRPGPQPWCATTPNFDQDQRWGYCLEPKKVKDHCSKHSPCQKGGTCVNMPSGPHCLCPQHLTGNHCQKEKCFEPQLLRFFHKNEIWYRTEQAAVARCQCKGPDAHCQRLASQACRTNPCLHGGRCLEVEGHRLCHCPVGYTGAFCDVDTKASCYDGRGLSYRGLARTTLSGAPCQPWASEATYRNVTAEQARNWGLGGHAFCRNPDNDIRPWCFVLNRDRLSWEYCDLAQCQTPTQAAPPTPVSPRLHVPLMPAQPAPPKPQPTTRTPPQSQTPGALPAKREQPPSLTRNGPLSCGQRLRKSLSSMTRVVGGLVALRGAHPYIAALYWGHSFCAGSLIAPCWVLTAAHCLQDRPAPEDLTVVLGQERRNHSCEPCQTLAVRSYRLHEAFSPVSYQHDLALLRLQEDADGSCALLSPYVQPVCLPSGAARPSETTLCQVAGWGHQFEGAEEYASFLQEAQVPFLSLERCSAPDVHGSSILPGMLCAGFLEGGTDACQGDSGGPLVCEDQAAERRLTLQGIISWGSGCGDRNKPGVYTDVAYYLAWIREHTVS

[9] = biological target: Melanocortin receptor 4 (Homo sapiens, UniProt P32245); test: inhibitors of MC4R cAMP signaling – cell-based, TR-FRET, biased antagonists, dose response (AID 602298); format: functional;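 further: antagonist potency against agonist-stimulated cAMP production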
[10] = cAMP pathway inhibition in counterscreen cell line – TR-FRET cAMP detection, counter-screen for MC4R biased antagonist project, dose response (AID 602305); format: functional, cell-based;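 further: U2OS cells stimulated with forskolin near its EC80 as the cAMP inducer; potency is for inhibition of forskolin-stimulated cAMP signaling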
[11] = biological target: Heat shock protein HSP 90-alpha (Homo sapiens, UniProt P07900); format: functional, organism-based
[12] = reduction of Shn3 3'UTR-driven luciferase in osteoblasts – cell-based, Clone20 osteoblasts, firefly luciferase, cherry-picked, dose response (AID 624132); format: functional;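 further: firefly luciferase luminescence from reporter carrying the Shn3 3'UTR in osteoblasts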
[13] = loss of viability in HepG2 cells – cell-based, CellTiter-Glo, cherry-picked, cytotoxicity control for Shn3 inhibitor project, dose response (AID 624134); format: functional
[14] = non-specific 3'UTR reporter inhibition in Clone20-Shn3RL – cell-based, Renilla luciferase, cherry-picked, counter-screen for Shn3 inhibitor project, dose response (AID 624133); format: functional
[15] = biological target: Photoreceptor-specific nuclear receptor (Homo sapiens, UniProt Q9Y5X4); format: functional, cell-based;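 further: CHO-S cells with Gal4-NCOR and VP16-NR2E3 two-hybrid luciferase reporter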
[16] = biological target: Neurotensin receptor type 1 (Homo sapiens, UniProt P30989); format: functional;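 further: Image-based confirmatory dose-response assay measuring agonist activity at NTR1; NTR1-expressing U2OS osteosarcoma cells imaged for beta-arrestin GFP spot formation; agonist potency where compounds increase beta-arrestin recruitment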

Chain of Peroxisome proliferator-activated receptor gamma/Nuclear receptor coactivator 1 (P37231 whole entry): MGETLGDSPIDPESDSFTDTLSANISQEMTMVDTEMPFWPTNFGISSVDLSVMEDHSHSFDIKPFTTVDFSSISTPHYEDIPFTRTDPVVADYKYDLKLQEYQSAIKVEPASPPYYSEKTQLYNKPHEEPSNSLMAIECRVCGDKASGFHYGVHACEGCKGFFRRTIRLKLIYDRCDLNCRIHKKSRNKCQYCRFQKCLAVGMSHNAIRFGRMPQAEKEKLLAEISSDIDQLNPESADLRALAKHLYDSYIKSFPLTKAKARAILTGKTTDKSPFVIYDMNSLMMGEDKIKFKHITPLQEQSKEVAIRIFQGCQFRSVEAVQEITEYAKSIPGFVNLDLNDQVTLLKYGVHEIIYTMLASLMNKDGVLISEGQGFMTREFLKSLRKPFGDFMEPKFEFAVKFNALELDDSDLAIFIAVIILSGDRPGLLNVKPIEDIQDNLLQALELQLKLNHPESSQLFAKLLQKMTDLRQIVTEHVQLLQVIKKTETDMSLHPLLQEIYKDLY
Chain of Peroxisome proliferator-activated receptor gamma/Nuclear receptor coactivator 1 (Q15788 whole entry, further chain): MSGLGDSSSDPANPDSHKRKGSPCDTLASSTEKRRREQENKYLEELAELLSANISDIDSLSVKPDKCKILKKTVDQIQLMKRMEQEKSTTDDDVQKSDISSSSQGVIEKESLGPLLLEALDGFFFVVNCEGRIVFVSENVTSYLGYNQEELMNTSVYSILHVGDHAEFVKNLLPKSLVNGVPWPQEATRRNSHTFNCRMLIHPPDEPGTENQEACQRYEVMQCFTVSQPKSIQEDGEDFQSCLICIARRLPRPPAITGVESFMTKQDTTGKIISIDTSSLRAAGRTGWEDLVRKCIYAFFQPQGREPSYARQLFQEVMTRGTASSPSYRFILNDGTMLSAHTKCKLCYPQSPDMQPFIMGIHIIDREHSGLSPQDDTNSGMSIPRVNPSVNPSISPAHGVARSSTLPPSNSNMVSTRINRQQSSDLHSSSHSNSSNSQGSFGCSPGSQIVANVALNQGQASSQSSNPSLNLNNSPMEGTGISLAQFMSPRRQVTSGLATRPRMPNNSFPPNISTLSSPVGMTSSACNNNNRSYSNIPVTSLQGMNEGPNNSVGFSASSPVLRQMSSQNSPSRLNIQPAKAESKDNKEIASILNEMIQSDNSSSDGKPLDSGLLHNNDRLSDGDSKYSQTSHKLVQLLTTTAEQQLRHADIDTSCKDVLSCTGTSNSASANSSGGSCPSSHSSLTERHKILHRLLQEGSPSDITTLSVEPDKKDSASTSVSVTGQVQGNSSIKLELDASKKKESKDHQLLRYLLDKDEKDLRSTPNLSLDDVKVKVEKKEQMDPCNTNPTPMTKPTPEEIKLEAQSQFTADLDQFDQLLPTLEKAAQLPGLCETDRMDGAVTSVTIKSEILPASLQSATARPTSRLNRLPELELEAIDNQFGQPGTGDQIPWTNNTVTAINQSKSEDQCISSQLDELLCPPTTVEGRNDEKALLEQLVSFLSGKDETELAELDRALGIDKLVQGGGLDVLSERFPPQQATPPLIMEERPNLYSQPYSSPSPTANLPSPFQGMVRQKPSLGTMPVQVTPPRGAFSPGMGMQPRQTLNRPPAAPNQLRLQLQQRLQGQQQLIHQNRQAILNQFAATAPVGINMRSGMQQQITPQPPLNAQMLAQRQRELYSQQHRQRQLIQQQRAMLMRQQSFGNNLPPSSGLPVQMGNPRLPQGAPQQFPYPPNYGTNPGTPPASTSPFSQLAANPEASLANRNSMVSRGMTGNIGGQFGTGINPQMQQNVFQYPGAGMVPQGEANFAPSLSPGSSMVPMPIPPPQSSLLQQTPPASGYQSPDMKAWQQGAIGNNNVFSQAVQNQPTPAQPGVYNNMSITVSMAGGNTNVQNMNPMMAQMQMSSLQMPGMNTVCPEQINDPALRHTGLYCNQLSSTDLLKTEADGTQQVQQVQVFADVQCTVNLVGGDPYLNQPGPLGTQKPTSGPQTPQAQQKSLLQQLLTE
Chain of Peroxisome proliferator-activated receptor gamma/Nuclear receptor coactivator 2 (P37231 whole entry): as the sequence (P37231 whole entry) above
Chain of Peroxisome proliferator-activated receptor gamma/Nuclear receptor coactivator 2 (Q15596 whole entry, further chain): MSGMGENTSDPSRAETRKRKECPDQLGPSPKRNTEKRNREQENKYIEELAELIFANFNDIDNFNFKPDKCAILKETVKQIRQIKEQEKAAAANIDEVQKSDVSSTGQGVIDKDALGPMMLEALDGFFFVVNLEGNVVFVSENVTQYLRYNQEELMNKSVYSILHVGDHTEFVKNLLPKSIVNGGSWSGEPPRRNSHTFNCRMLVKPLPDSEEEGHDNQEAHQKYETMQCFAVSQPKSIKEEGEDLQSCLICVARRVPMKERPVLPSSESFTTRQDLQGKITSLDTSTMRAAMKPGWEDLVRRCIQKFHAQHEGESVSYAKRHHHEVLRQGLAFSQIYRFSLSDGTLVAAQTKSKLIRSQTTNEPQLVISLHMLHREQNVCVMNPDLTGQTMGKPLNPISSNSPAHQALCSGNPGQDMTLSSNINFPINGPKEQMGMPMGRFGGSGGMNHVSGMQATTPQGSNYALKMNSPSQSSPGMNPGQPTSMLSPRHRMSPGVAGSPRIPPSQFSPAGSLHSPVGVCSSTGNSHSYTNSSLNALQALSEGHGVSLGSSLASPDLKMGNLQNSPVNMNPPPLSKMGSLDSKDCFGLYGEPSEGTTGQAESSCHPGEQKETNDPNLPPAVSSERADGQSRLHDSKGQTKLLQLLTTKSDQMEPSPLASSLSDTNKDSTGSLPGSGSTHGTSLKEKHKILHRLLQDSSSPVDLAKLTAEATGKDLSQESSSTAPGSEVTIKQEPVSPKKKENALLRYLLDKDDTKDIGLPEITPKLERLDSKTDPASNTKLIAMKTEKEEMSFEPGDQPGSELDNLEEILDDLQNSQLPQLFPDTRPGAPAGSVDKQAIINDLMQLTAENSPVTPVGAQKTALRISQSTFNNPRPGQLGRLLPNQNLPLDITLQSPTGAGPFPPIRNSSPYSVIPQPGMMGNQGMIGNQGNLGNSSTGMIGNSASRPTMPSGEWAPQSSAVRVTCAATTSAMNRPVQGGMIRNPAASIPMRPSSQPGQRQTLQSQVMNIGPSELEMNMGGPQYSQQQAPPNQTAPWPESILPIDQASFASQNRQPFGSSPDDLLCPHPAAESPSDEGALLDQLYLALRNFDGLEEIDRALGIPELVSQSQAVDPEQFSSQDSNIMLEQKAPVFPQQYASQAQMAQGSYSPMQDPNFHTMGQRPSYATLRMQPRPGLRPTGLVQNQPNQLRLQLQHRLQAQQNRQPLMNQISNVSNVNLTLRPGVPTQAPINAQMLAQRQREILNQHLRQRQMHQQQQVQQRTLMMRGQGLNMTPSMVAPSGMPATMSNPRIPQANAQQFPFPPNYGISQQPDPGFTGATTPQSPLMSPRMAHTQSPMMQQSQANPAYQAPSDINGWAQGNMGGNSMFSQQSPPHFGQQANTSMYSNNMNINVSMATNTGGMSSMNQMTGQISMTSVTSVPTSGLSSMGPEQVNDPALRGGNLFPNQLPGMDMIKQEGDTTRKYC
Chain of Eukaryotic translation initiation factor 4E (P63073 whole entry): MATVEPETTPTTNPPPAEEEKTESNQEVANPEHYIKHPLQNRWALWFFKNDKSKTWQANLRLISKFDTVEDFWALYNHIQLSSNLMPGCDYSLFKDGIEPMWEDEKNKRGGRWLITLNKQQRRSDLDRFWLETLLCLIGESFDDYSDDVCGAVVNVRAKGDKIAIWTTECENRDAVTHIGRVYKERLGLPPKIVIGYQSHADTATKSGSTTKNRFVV
Chain of Photoreceptor-specific nuclear receptor (Q9Y5X4 whole entry, the tested form may be a part): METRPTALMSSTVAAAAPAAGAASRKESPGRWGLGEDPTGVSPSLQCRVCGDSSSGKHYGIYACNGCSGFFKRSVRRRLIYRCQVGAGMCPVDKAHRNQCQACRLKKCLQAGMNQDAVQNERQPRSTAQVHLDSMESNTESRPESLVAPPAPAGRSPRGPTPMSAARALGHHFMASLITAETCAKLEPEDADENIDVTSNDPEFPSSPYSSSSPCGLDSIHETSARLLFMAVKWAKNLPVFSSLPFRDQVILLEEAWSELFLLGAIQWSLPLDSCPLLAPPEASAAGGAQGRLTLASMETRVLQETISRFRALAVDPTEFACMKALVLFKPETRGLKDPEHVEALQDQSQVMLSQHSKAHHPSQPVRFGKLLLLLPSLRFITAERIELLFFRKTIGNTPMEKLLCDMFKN
Chain of Melanocortin receptor 4 (P32245 whole entry): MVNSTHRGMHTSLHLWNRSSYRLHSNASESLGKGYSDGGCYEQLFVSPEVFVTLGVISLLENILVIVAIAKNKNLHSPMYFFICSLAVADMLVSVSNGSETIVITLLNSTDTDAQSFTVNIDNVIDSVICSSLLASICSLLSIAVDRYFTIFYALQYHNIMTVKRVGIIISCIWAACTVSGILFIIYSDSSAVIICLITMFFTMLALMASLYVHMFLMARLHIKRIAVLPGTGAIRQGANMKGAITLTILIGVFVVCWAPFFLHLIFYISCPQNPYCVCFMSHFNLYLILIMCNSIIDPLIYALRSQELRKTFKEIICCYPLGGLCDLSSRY

OC(C#CCN1CCCC1)(c1ccccc1)c1cccc(F)c1 (centres undefined)
EC50 [1]: > 79.4 µM (not active)
EC50 [2]: > 79.4 µM (not active)
EC50 [3]: > 79.4 µM (not active)

O=C(NCCc1ccncc1)c1ccccc1F
IC50 [4]: > 64 µM (inactive)

CCOC(=O)/C(C#N)=C\c1ccc2c(c1)OCO2
IC50 [5]: 2.02 µM (active)
EC50 [6]: > 53 µM (inactive)
IC50 [7]: > 20 µM (inactive)

CCCOc1ccc(C(=O)NC(C)C(=O)O)cc1 (centres undefined)
IC50 [8]: > 50 µM (inactive)

CCC(C)NC(=O)C1CN(S(=O)(=O)c2ccccc2)CCN1S(=O)(=O)c1ccccc1 (centres undefined)
IC50 [8]: > 50 µM (inactive)

NS(=O)(=O)c1ccc(NC(=O)COC(=O)c2ncc(Cl)c(Cl)c2Cl)cc1
IC50 [9]: > 64.6 µM (inactive)
IC50 [10]: > 64.6 µM (inactive)

CN(Cc1ccccc1)c1nc2c(c(=O)[nH]c(=O)n2C)n1CCCSc1ncccn1
IC50 [8]: > 50 µM (inactive)

O=C(OC12CC3CC(CC(C3)C1)C2)c1ccc(NCc2cc(O)ccc2O)cc1
AC50 [11]: 5.15 µM (active)
AC50 [12]: 2.33 µM (active)
AC50 [13]: 53 µM (active)
AC50 [14]: 3.99 µM (active)
IC50 [15]: 4.09 µM (active)

O=C(N/N=C/c1ccc(OC(=O)c2ccccc2Cl)cc1)c1ccc(O)cc1
EC50 [16]: 17.1 µM (active)

Cc1ccc(NC(=O)CSc2nnc(-c3ccc(S(=O)(=O)N4CCCC4)cc3)o2)cc1C
EC50 [1]: 39.8 µM (not active)
EC50 [2]: 81.2 µM (not active)
EC50 [3]: > 79.4 µM (not active)

CC(C)N1CCN(Cc2ccc(Oc3ncccn3)cc2)CC1CCO (centres undefined)
EC50 [1]: > 79.4 µM (not active)
EC50 [2]: > 79.4 µM (not active)
EC50 [3]: > 79.4 µM (not active)

From ChEMBL document CHEMBL1201862, “PubChem BioAssay data set” (2004)
